Test results published in patent publication US8044070B2, “Heteroaryloxy nitrogenous saturated heterocyclic derivative” (MSD K.K., priority 2003, dated 2011).
Like-named read-outs stand apart in the source and are kept apart here.

Experiments:
histamine-3 receptor [1] = molecular target: T1, histamine-3 receptor (Homo sapiens, UniProt Q9Y5N1); assay: Histamine analogue-binding inhibition test ([35S]GTPγS binding in presence of R-methylhistamine, SPA); format: biochemical; settings: 20 nM R-methylhistamine, 25° C., 3 hours; read-out: IC50 (nM) to specific [35S]GTPγS binding
T1 construct: expressed in transfected cells; host or cells: HEK293 and CHO-K1 (membrane specimen)
Excerpt: (§1) A cDNA sequence coding for a human histamine-3 receptor [see International Patent Application WO00/39164) was cloned with expression vectors pCR2.1, pEF1x (by Invitrogen) and pCI-neo (by Promega). The resulting expression vector was transfected into host cells, HEK293 and CHO-K1 (American Type Culture Collection), according to a cationic lipid process [see Proceedings of the National Academy of Sciences of the United States of America, Vol., 84, p. 7413 (1987)] to obtain histamine-3 receptor expression cells.
A membrane specimen prepared from the cells having expressed a histamine-3 receptor was incubated in an assay buffer (50 mM Tris buffer, 100 mM NaCl, 5 mM MgCl2, pH 7.4) along with a test compound, 20 nM R-methylhistamine (histamine analogue, by Sigma), 10 μM GDP (guanine-nucleotide diphosphate, by Sigma), […] [^35S] GTPγS (guanine-nucleotide triphosphate analogue, by Amersham) and SPA resin (wheatgerm agglutinin SPA beads, by Amersham) therein on a 96-well optiplate (by Packard) at 25° C. for 3 hours and then centrifuged at 3,000 rpm, and its activity was counted with Topcount (by Packard). The non-specific binding was determined in the presence of 10 μM GTPγS (by Sigma), and the 50% inhibitory concentration (IC50) of the test compound to specific N[^35S] GTPγS binding was calculated [see British Journal of Pharmacology, Vol. 135, p. 383 (2002)].

histamine-3 receptor [2] = molecular target: T1, histamine-3 receptor; assay: Histamine analogue-binding inhibition test ([3H]N-α-methylhistamine binding to membrane specimen); settings: membrane of histamine-3 receptor expressing cells, 25° C., 2 hours; read-out: 50% inhibitory concentration (IC50) to specific N-α-methylhistamine binding
Excerpt: as §1
A membrane specimen prepared from the cells having expressed a histamine-3 receptor was incubated in an assay buffer (50 mM Tris buffer, pH 7.4) along with a test compound and 20,000 cpm of [^3H]-α-methylhistamine (by NEN) therein at 25° C. for 2 hours, and then filtered through a glass filter GF/C. This was washed with 50 mM Tris buffer (ph 7.4), and the radioactivity on the glass filter was measured. The non-specific binding was determined in the presence of 10 μM thioperamide (by SIGAM), and the 50% inhibitory concentration (IC50) of the test compound to specific N-α-methylhistamine binding was calculated [see Molecular Pharmacology, Vol. 55, p. 1101 (1999)].

[3] = Test for internal kinetics; format: in vivo, rat; settings: SD male rats, oral or intravenous administration
Protocol: A test compound was orally or intravenously administered to SD male rats (7 to 10 weeks-age, 200 to 400 g) kept away from eating and drinking overnight, and using a heparinization capillary within a predetermined period of time, about 100 μl of the blood was collected from them via their tail vein. The blood was centrifuged (4° C., 6000 rpm, 10 minutes) to collect its plasma. Ethanol (including an internal standard substance) was added to the plasma in an amount of 3 times that of the plasma, and stirred, and left statically at −20° C. for 20 minutes, and then this was centrifuged (4° C., 10,000 rpm, 10 minutes). The supernatant was analyzed through LC/MS/MS, and the plasma concentration of the compound was quantified according to a relative calibration curve method.

[4] = Brain/cerebrospinal fluid migration test; format: in vivo, rat; settings: SD male rats, 2 hours after oral administration (10 mg/kg); for concentration at 2 h: rat
Excerpt: A test compound was orally or intravenously administered to SD male rats (7 to 10 weeks-age, 200 to 400 g), and while anesthetized with ether for a predetermined period of time, the whole blood was collected from the abdominal aorta of the rats, using a heparin-processed syringe. Next, the brain skin was cut opened and a 30 G needle for dental use was pierced between the cervical vertebrae and inserted into the subarachnoid cavity. Through the tube connected with the dental 30 G needle, from 50 to 100 μl of the cerebrospinal fluid was collected into a 1-ml syringe, and then the brain was taken out. The blood sample was centrifuged (4° C., 6000 rpm, 10 minutes), and the resulting plasma was stirred with ethanol (including an internal standard substance) added thereto in an amount of 3 times the plasma. 2 ml of water was added to the brain sample and homogenized, and a part of the resulting mixture was stirred with ethanol (including an internal standard substance) added thereto in an amount of 3 times the mixture. These samples were kept at −20° C. for 20 minutes, and then centrifuged (4° C., 12,000 g, 10 minutes), and the resulting supernatant was analyzed through LC/MS/MS. According to a relative calibration curve method, the concentration of the test compound in the plasma, the brain and the cerebrospinal fluid was quantified.

T1 sequence (Q9Y5N1 whole entry): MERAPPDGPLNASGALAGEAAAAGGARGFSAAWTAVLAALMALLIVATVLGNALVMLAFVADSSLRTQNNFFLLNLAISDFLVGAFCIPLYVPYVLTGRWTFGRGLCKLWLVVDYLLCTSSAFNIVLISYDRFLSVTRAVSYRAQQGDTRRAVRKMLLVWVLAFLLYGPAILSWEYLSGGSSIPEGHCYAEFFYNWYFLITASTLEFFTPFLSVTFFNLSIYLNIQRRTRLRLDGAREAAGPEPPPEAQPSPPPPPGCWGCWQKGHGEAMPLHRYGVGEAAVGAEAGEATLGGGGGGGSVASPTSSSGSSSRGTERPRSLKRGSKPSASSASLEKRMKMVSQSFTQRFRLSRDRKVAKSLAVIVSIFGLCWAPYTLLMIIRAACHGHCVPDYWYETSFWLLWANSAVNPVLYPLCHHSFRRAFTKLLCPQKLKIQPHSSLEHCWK

Row | IC50 (histamine-3 receptor [1]) | Compound | other results
1 | 1.2 nM | O=C(c1ccc(-c2cnc(OC3CCN(C4CCCC4)CC3)nc2)cc1)N1CCCC1 [Example 11, 2-(1-cyclopentylpiperidin-4-yloxy)-5-{4-(pyrrolidin-1-ylcarbonyl)phenyl}pyrimidine] | –
2 | 1.9 nM | N#Cc1ccc(-c2cnc(OC3CCN(C4CCCC4)CC3)nc2)cc1 [Example 1, 2-(1-cyclopentylpiperidin-4-yloxy)-5-(4-cyanophenyl)pyrimidine] | IC50 (histamine-3 receptor [2]): 15 nM; half-value period in blood [3]: 5.3 h; bioavailability ([3]; rat, plasma): 53%; brain concentration [4]: 6.18 nmol/g; concentration at 2 h ([4]; cerebrospinal fluid, read-out: cerebrospinal fluid concentration): 128 nM; concentration at 2 h ([4]; plasma, read-out: plasma concentration): 540 nM
3 | 1.3 nM | CS(=O)(=O)c1ccc(-c2cnc(OC3CCN(C4CCCC4)CC3)nc2)cc1 [Example 37, 2-(1-cyclopentylpiperidin-4-yloxy)-5-{4-(methylsulfonyl)phenyl}pyrimidine] | –

Further lines, the compound ahead of its results:

Row | Compound | IC50 (histamine-3 receptor [1]) | other results
4 | FC(F)(F)c1ccc(-c2cnc(OC3CCN(C4CCCC4)CC3)nc2)cc1 [Example 23, 2-(1-cyclopentylpiperidin-4-yloxy)-5-(4-trifluoromethylphenyl)pyrimidine] | 1.4 nM | –
5 | CC(C)N1CCC(Oc2ccc(-c3ccc(=O)n(C)c3)cn2)CC1 [Example 68, 2-(1-isopropylpiperidin-4-yloxy)-5-{1-methyl-1H-pyridin-2-on-5-yl}pyridine] | 1.4 nM | –
6 | c1cn2cnnc2cc1-c1cnc(OC2CCN(C3CCCC3)CC2)nc1 [Example 60, 2-(1-cyclopentylpiperidin-4-yloxy)-5-(1,2,4-triazolo[4,3,a]pyridin-7-yl)pyrimidine] | 1.2 nM | –
7 | Cn1cc(-c2ccc(OC3CCN(C4CCC4)CC3)nc2)ccc1=O [Example 65, 2-(1-cyclobutylpiperidin-4-yloxy)-5-{1-methyl-1H-pyridin-2-on-5-yl}pyridine] | 0.45 nM | –
